Measured values: ChEMBL document CHEMBL1201862, “PubChem BioAssay data set” (2004)
Where “and” joins values, the source holds several entries; their conditions need not be identical. Equal entries are not always repeated.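 Briefly, cells in 96-well plates were exposed to five compound concentrations for 48 h, and endpoints were estimated by linear interpolation. The concentration for 50% growth inhibition is given as GI50.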 Calls of active or inactive are those of the source. Cut-off read from the data, not from the text of the source: active = GI50 up to about 1.1 µM and inactive = higher.

What was measured:
Experiment in all cases: inhibition of tumour cell growth, NCI panel, 48 h
[1] = tested on: NCI/ADR-RES
[2] = tested on: ACHN
[3] = tested on: OVCAR-8
[4] = tested on: M14
[5] = tested on: SR
[6] = tested on: MCF7
[7] = tested on: MDA-MB-435
[8] = tested on: UACC-62
[9] = tested on: DU-145
[10] = tested on: A498
[11] = tested on: HCT-116
[12] = tested on: MDA-MB-231
[13] = tested on: MDA-N
[14] = tested on: SNB-78
[15] = tested on: DLD-1
[16] = tested on: DMS-114
[17] = tested on: DMS-273
[18] = tested on: HOP-18
[19] = tested on: XF498
[20] = tested on: M19-MEL

Row | Compound | GI50 [1] | GI50 [2] | GI50 [3] | GI50 [4] | GI50 [5] | GI50 [6] | GI50 [7] | GI50 [8] | GI50 [9] | GI50 [10] | GI50 [11] | GI50 [12] | GI50 [13] | GI50 [14] | GI50 [15] | GI50 [16] | GI50 [17] | GI50 [18] | GI50 [19] | GI50 [20]
1 | COc1ccc(C2=N/C(=C\c3ccccc3)C(=O)O2)cc1 | 16.7 µM (inactive) | > 100 µM (inactive) | 30.8 µM (inactive) | > 100 µM (inactive) | 17.3 µM (inactive) | > 100 µM (inactive) | > 100 µM (inactive) |  |  |  |  |  |  |  |  |  |  |  |  | 
2 | CCC(C)NC1=NCC(C)S1 (stereo not given) |  | > 100 µM (inactive) |  | > 100 µM (inactive) | > 100 µM (inactive) | > 100 µM (inactive) | > 100 µM (inactive) | > 100 µM (inactive) | > 100 µM (inactive) | > 100 µM (inactive) | > 100 µM (inactive) | > 100 µM (inactive) | > 100 µM (inactive) |  |  |  |  |  |  | 
3 | CCCn1cc2c(SC)nc(SC)nc2n1 |  | > 100 µM (inactive) | > 100 µM (inactive) | > 100 µM (inactive) | > 100 µM (inactive) |  |  |  |  | > 100 µM (inactive) | > 100 µM (inactive) |  |  | > 100 µM (inactive) | > 100 µM (inactive) | > 100 µM (inactive) | > 100 µM (inactive) | > 100 µM (inactive) | > 100 µM (inactive) | 
4 | CCOc1ccc2nc(-c3ccc(O)cc3)sc2c1 | > 100 µM (inactive) | 61.2 µM (inactive) | 48.6 µM (inactive) | > 100 µM (inactive) |  | > 100 µM (inactive) | > 100 µM (inactive) | 56.9 µM (inactive) | > 100 µM (inactive) | 30.4 µM (inactive) | 69.3 µM (inactive) | > 100 µM (inactive) | > 100 µM (inactive) |  |  |  |  |  |  | 
5 | CC(=O)C1(c2ccccc2)CCCN(C)CC1 (stereo not given) | > 100 µM (inactive) |  | > 100 µM (inactive) | > 100 µM (inactive) | > 100 µM (inactive) | > 100 µM (inactive) | > 100 µM (inactive) | > 100 µM (inactive) | > 100 µM (inactive) | > 100 µM (inactive) | > 100 µM (inactive) | > 100 µM (inactive) | > 10 µM (inactive) |  |  |  |  |  |  | 
6 | COc1cccc(N2C(=O)CSC2c2c[nH]c3ccccc23)c1 (stereo not given) |  |  | > 100 µM (inactive) | > 100 µM (inactive) | > 100 µM (inactive) | > 100 µM (inactive) | > 100 µM (inactive) | > 100 µM (inactive) | > 100 µM (inactive) |  | > 100 µM (inactive) | > 100 µM (inactive) | > 100 µM (inactive) |  |  |  |  |  |  | 
7 | CC(=O)c1ccc2c(c1)c1c(C)c3c[n+](C)ccc3c(C)c1n2C | 8.55 µM (inactive) |  | 1.45 µM (inactive) |  |  | 3.1 µM (inactive) |  | 1.87 µM (inactive) |  | 6.41 µM (inactive) | 2.29 µM (inactive) |  |  | 4.53 µM (inactive) | 4.56 µM (inactive) | 2.14 µM (inactive) | 2.39 µM (inactive) | 17.2 µM (inactive) | 2.53 µM (inactive) | 4.79 µM (inactive)
8 | COc1cccc2c1C(=O)c1c(O)c3c(c(O)c1C2=O)CC(O)(C(C)=O)CC3O (stereo not given) | 5.68 µM (inactive) |  | 2.84 µM (inactive) |  |  | 1.01 µM (active) |  | 5.58 µM (inactive) |  | 1 µM (active) | 2.41 µM (inactive) |  |  | 9.18 µM (inactive) | 6.85 µM (inactive) | 6.97 µM (inactive) | 2.3 µM (inactive) | 22.6 µM (inactive) | 0.537 µM (active) | 5.79 µM (inactive)
9 | Cc1nc(-c2nc([N+](=O)[O-])c([N+](=O)[O-])[nH]2)cs1 |  | > 100 µM (inactive) |  | > 100 µM (inactive) | > 100 µM (inactive) |  |  | > 100 µM (inactive) |  | > 100 µM (inactive) | > 100 µM (inactive) |  |  | > 100 µM (inactive) | > 100 µM (inactive) | > 100 µM (inactive) | > 100 µM (inactive) |  | > 100 µM (inactive) | > 100 µM (inactive)
10 | CCOC1=NC(C(F)(F)F)(C(F)(F)F)N=C(N2CCOCC2)O1 | > 100 µM (inactive) | > 100 µM (inactive) | > 100 µM (inactive) | > 100 µM (inactive) | > 100 µM (inactive) | > 100 µM (inactive) | > 100 µM (inactive) | 24 µM (inactive) | > 100 µM (inactive) |  | > 100 µM (inactive) | > 100 µM (inactive) | > 100 µM (inactive) |  |  |  |  |  |  | 
11 | CN(C)C(=O)/C=C/c1c[nH]c(=O)[nH]c1=O | > 500 µM (inactive) |  | > 500 µM (inactive) |  |  | > 500 µM (inactive) |  | > 500 µM (inactive) |  | > 500 µM (inactive) | > 500 µM (inactive) |  |  |  | > 500 µM (inactive) | > 500 µM (inactive) | > 500 µM (inactive) | > 500 µM (inactive) |  | 
12 | O=C1c2cc3c(cc2[C@@H]2C(O)[C@H]4O[C@H]4C4CCN1C42)OCO3 (stereo not given in full) |  | > 37.5 µM (inactive) | > 37.5 µM (inactive) | > 37.5 µM (inactive) | > 37.5 µM (inactive) |  |  | > 37.5 µM (inactive) |  |  | > 37.5 µM (inactive) |  |  |  |  | > 37.5 µM (inactive) | > 37.5 µM (inactive) |  | > 37.5 µM (inactive) | 
13 | CCCCCCCCCCSCC(CO)NC(=O)/C=C/c1c(C)[nH]c(=O)[nH]c1=O (stereo not given) | > 50 µM (inactive) and > 42.8 µM (inactive) |  | 1.04 µM (active) and 1.09 µM (active) |  |  | 753 nM (active) and 1.17 µM (inactive) |  | 1.03 µM (active) and 1.17 µM (inactive) |  |  | 1.26 µM (inactive) and 1.29 µM (inactive) |  |  | 1.71 µM (inactive) and 1.9 µM (inactive) | 1.44 µM (inactive) and 1.38 µM (inactive) | 548 nM (active) and 637 nM (active) |  |  | 519 nM (active) and 687 nM (active) | 1.33 µM (inactive) and 1.06 µM (active)
14 | Cc1ccc(NC(=O)CC/C(CC(=O)C(C)(C)C)=N/NC(=O)c2cc3ccccc3cc2O)cc1C |  | 31 µM (inactive) | 26.8 µM (inactive) | 32.5 µM (inactive) |  |  |  | 24.5 µM (inactive) |  |  | 40.3 µM (inactive) |  |  | 60.5 µM (inactive) | 30 µM (inactive) | 31.6 µM (inactive) |  | 32.1 µM (inactive) |  | 39.4 µM (inactive)
15 | C=C1C(=O)OCC2C(C(=O)O)=CC3C(C)C(C)=CC123 (stereo not given) | 8.26 µM (inactive) |  | 9.59 µM (inactive) |  |  | 8.13 µM (inactive) |  | 5.41 µM (inactive) |  | 7.8 µM (inactive) | 9.48 µM (inactive) |  |  | 14.8 µM (inactive) | 11 µM (inactive) | 7.69 µM (inactive) | 18.5 µM (inactive) | 12.2 µM (inactive) | 12.5 µM (inactive) | 14.7 µM (inactive)
16 | CCCCCCCC/C=C\CCCCCCCC(=O)O [OLEIC ACID] | 102 µM (inactive) |  | 99.1 µM (inactive) |  |  | 104 µM (inactive) |  | 180 µM (inactive) |  | > 431 µM (inactive) | 114 µM (inactive) |  |  | 68.7 µM (inactive) | 148 µM (inactive) | 97.7 µM (inactive) | 110 µM (inactive) | > 500 µM (inactive) | 8.91 µM (inactive) | 101 µM (inactive)
17 | COP(=O)(OC)/C(=C\C1=CN(C(c2ccccc2)(c2ccccc2)c2ccccc2)CN1)NC=O | 15.8 µM (inactive) | 15.1 µM (inactive) | 21.3 µM (inactive) | 19.9 µM (inactive) | 14.2 µM (inactive) |  | 11.1 µM (inactive) |  | 20.2 µM (inactive) | 17.9 µM (inactive) | 15.6 µM (inactive) | 16.8 µM (inactive) | 15.1 µM (inactive) |  |  |  |  |  |  | 
